Reference: patent US7410975B2, “Small molecule toll-like receptor (TLR) antagonists” (Coley Pharmaceutical Group, Inc., priority 2003, dated 2008)

Biological target: T1, human TLR3 (hTLR3) (Homo sapiens, UniProt O15455)
T1 construct: expressed in transfected cells
T1 sequence (O15455 24-904): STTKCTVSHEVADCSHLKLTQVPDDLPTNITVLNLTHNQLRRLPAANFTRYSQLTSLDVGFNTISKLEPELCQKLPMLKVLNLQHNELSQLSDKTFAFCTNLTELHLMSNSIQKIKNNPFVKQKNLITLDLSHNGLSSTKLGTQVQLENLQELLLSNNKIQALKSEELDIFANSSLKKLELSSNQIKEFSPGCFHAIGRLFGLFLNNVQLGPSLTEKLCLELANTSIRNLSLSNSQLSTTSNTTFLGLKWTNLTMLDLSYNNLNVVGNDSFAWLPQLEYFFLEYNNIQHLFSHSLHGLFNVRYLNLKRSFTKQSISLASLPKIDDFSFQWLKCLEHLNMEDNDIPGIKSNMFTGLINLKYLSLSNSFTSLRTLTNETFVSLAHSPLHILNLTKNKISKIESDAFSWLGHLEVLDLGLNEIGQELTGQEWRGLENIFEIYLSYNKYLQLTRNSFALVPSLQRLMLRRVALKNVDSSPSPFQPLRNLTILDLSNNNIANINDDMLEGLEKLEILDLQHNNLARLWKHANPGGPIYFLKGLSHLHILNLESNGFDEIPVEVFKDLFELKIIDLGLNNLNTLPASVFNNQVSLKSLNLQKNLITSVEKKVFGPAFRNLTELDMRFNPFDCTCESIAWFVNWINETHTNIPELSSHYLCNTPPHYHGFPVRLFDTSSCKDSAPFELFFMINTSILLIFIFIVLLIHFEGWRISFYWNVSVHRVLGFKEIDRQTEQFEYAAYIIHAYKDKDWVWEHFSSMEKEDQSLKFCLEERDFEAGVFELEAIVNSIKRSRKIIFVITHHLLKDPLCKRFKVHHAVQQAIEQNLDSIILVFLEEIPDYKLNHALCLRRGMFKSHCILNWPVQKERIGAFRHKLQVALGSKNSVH
Experiment: Antagonist screen, hTLR3-NFκB-293 cells, NF-κB-luciferase reporter, with EC50 of poly(I:C)
Type: cell-based
Conditions: compound at 0.5, 5, 50 μg/ml; EC50 concentration of poly(I:C); 16 h; NF-κB-luciferase
Procedure: The method is described in greater detail as follows. The cells for each individual cell clone (hTLR3-NFκB-293, hTLR7-NFκB-293, hTLR8-NFκB-293 and hTLR9-NFκB-293) were counted and seeded one day before the stimulation at 1.5×10^4 cells per well in 96-well cell culture plates. To become adherent the cells were incubated after seeding overnight at 37° C. in 5% CO2 humidified air.
The screen for each compound was performed at the same time for all of the receptors TLR3, TLR7, TLR8 and TLR9. Up to fifteen test compounds, each assayed in duplicate at each of three different final concentrations (0.5 μg/ml, 5 μg/ml, and 50 μg/ml), were used for 16 h cell stimulation on a single multiwell culture plate. A 4× final concentration master plate was created to prepare the different test compounds before they were added to the cells.
Controls were added as duplicates individually for each cell clone on the cell culture plate. Positive controls were used as follows (final concentrations): 50 μg/ml poly(I:C) for hTLR3-NFκB-293; 8 μM resiquimod (R848) for hTLR7-NFκB-293; 30 μM R848 for hTLR8-NFκB-293; and 2.5 μM CpG-ODN 2006 for hTLR9-NFκB-293. Media alone was used as negative control. After addition of controls and small molecules, the cell clones were additionally stimulated with the EC50 concentration of the appropriate receptor-specific ligand.
The mean value of wells H2 and H5 (each with cells and EC50 concentration of the appropriate receptor-specific ligand) divided by the mean of wells H3 and H6 (each with cells alone) yielded the baseline response (i.e., fold induction of luciferase activity) to EC50 concentration of the appropriate receptor-specific ligand.
After 16 h stimulation the supernatant was removed and the cells treated with lysis buffer and stored at −80° C. before measuring.
For each screen result a graphical documentation was performed.
The baseline result (measured with addition of the EC50 concentration of the receptor-specific ligand) for each cell culture plate was measured as described above. Antagonistic effects were measured by down regulation compared to the baseline. Antagonists were scored as follows: • 13: compounds for which there was clear down regulation at 0.5 μg/ml, 5 μg/ml, and 50 μg/ml; • 12: compounds for which there was clear down regulation at 5 μg/ml and 50 μg/ml; • 11: compounds for which there was clear down regulation only at 50 μg/ml; • —: compounds for which there was no clear down regulation even at 50 μg/ml. Agonists
Results were expressed as fold induction over baseline luciferase activity measured in the absence of poly(I:C). […] Additional screening was performed in like manner using additional small molecules selected from another library or specifically prepared for this purpose. Scoring is reported as above but as applied to TLR3.

| Compound | hTLR3 (inhibitory effect, antagonist score) |
| --- | --- |
| COC(=O)[C@H]1[C@H]2C[C@@H]3c4[nH]c5cc(OC)ccc5c4CCN3C[C@H]2C[C@@H](OC(=O)/C=C/c2cc(OC)c(OC)c(OC)c2)[C@@H]1OC [compound 568, Rescinnamin] | — (compounds for which there was no clear down regulation even at 50 μg/ml) |
| OC(c1ccccc1)(c1ccccc1)C1CCNCC1 [compound 93, Azacyclonol] | — (compounds for which there was no clear down regulation even at 50 μg/ml) |
| Clc1ccc(C(c2ccccc2Cl)C(Cl)Cl)cc1 (centres unmarked) [compound 833, Mitotane] | 11 (compounds for which there was clear down regulation only at 50 μg/ml) |
| CN(C)CCCN1c2ccccc2Sc2ccc(C(F)(F)F)cc21.Cl [compound 53, Triflupromazinehydrochloride] | 11 (compounds for which there was clear down regulation only at 50 μg/ml) |
| Cc1nccc2c1[nH]c1cc(O)ccc12.Cl [compound 612, Harmol hydrochloride monohydrate] | 11 (compounds for which there was clear down regulation only at 50 μg/ml) |
| O=C(O)c1cccc2c1-c1ccccc1/C2=N/Nc1ccc([N+](=O)[O-])cc1[N+](=O)[O-] [compound 944] | 11 (compounds for which there was clear down regulation only at 50 μg/ml) |
| Nc1cccc2c1C(=O)c1cccc(N)c1C2=O [compound 413, Anthraquinone,1,5-diamino] | 11 (compounds for which there was clear down regulation only at 50 μg/ml) |
| CCCC(C(=O)OCCN(CC)CC)(c1ccccc1)c1ccccc1.Cl [compound 778, Proadifen hydrochloride] | 11 (compounds for which there was clear down regulation only at 50 μg/ml) |
| Cl.Cl.Fc1ccc(C(OCCN2CCN(CCCc3ccccc3)CC2)c2ccc(F)cc2)cc1 [compound 386, GBR 12909hydrochloride] | 11 (compounds for which there was clear down regulation only at 50 μg/ml) |
| C[N+]12CCC(CC1)C(OC(=O)C(O)(c1ccccc1)c1ccccc1)C2.[Br-] (centres unmarked) [compound 822, Clidinium bromide] | — (compounds for which there was no clear down regulation even at 50 μg/ml) |
| CN(C)CCCN1c2ccccc2Sc2ccccc21.Cl [compound 693, Promazinehydrochloride] | — (compounds for which there was no clear down regulation even at 50 μg/ml) |
| CC(CN(C)C)CN1c2ccccc2Sc2ccccc21.CC(CN(C)C)CN1c2ccccc2Sc2ccccc21.O=C(O)C(O)C(O)C(=O)O (centres unmarked) [compound 842, Trimeprazine tartrate] | — (compounds for which there was no clear down regulation even at 50 μg/ml) |
| COc1ccc2c(c1)[nH]c1c(C)nccc12.Cl [compound 613, harmine hydrochloride] | 12 (compounds for which there was clear down regulation at 5 μg/ml and 50 μg/ml) |
| O=C1c2ccccc2C(=O)c2c1ccc1c(=O)n(-c3ccccc3)[nH]c21 [compound 1042] | 11 (compounds for which there was clear down regulation only at 50 μg/ml) |
| O=C(O)c1ccccc1NC1CC=CC2=C1C(=O)c1ccccc1C2=O (centres unmarked) [compound 917] | 12 (compounds for which there was clear down regulation at 5 μg/ml and 50 μg/ml) |
| Metixene hydrochloride [compound 491] | 12 (compounds for which there was clear down regulation at 5 μg/ml and 50 μg/ml) |

| Compound | hTLR3 (inhibitory effect, antagonist score) |
| --- | --- |
| CC(=O)c1ccc2c(c1)N(CCCN(C)C)c1ccccc1S2.O=C(O)/C=C\C(=O)O [compound 576, Acetopromazinemaleate salt] | 11 (compounds for which there was clear down regulation only at 50 μg/ml) |
| CN(C)CC/C=C1/c2ccccc2Sc2ccc(Cl)cc21.Cl [compound 348, Chlorprothixenehydrochloride] | 11 (compounds for which there was clear down regulation only at 50 μg/ml) |
| Cl.Clc1ccc(C(OCCN2CCCCC2)c2ccccc2)cc1 (centres unmarked) [compound 793, Cloperastinehydrochloride] | 11 (compounds for which there was clear down regulation only at 50 μg/ml) |
| CCN(CC)C(C)CN1c2ccccc2Sc2ccccc21.Cl (centres unmarked) [compound 840, Ethopropazinehydrochloride] | — (compounds for which there was no clear down regulation even at 50 μg/ml) |
| COC(=O)c1ccc(C2CC(=O)Nc3c2ccc2ccccc32)cc1 (centres unmarked) [compound 965] | 12 (compounds for which there was clear down regulation at 5 μg/ml and 50 μg/ml) |
| CN(C)CC/C=C1/c2ccccc2CSc2ccccc21.Cl [compound 488, Dosulepin hydrochloride] | 11 (compounds for which there was clear down regulation only at 50 μg/ml) |
| COc1ccc2c(c1)N(CC(C)CN(C)C)c1ccccc1S2.O=C(O)/C=C\C(=O)O (centres unmarked) [compound 797, Methotrimeprazinemaleat salt] | 11 (compounds for which there was clear down regulation only at 50 μg/ml) |
| O=C(O)c1cc(C(c2ccc(O)c(C(=O)O)c2)C(Cl)(Cl)Cl)ccc1O [compound 884] | — (compounds for which there was no clear down regulation even at 50 μg/ml) |
| C[C@]12N[C@H](Cc3ccccc31)c1ccccc12.O=C(O)/C=C\C(=O)O [compound 109, Dizocilpine maleate] | — (compounds for which there was no clear down regulation even at 50 μg/ml) |
| Cc1c2ccncc2c(C)c2c1[nH]c1ccccc12 [compound 614, Ellipticine] | 12 (compounds for which there was clear down regulation at 5 μg/ml and 50 μg/ml) |
| O=c1[nH]c2ccccc2n1C1CCN(CCCC(c2ccc(F)cc2)c2ccc(F)cc2)CC1 [compound 308, Pimozide] | 12 (compounds for which there was clear down regulation at 5 μg/ml and 50 μg/ml) |
| CN1CCC(OC(c2ccccc2)c2ccccc2)CC1.Cl [compound 707, Diphenylpyralinehydrochloride] | — (compounds for which there was no clear down regulation even at 50 μg/ml) |
| COc1ccc2[nH]c3c(c2c1)CCN=C3C [compound 621, Methoxy-6-harmalan] | — (compounds for which there was no clear down regulation even at 50 μg/ml) |
| Cc1cccc(C)c1NC(=O)CN1CCN(CCCC(c2ccc(F)cc2)c2ccc(F)cc2)CC1 [compound 381, Lidoflazine] | 11 (compounds for which there was clear down regulation only at 50 μg/ml) |
| CCOC(=O)c1cc([N+](=O)[O-])cc2c1-c1ccc([N+](=O)[O-])cc1C2=C(C#N)C#N [compound 1039] | — (compounds for which there was no clear down regulation even at 50 μg/ml) |
| CC(=O)Oc1cc(C)c(C2(c3cc(C(C)C)c(OC(C)=O)cc3C)OC(=O)c3ccccc32)cc1C(C)C [compound 1161] | 12 (compounds for which there was clear down regulation at 5 μg/ml and 50 μg/ml) |
